Active and inactive are the calls of the source.
Tests used:
Vero [1] = experiment: Vero 76 cell viability after compound exposure – Vero 76 cells, synthesized analogs, cytotoxicity control for West Nile virus antiviral project, SAR follow-up (AID 2414); format: functional; conditions: Chlorocebus sabaeus
Vero [2] = experiment: Vero cell viability after compound exposure – synthesized analogs, set II, cytotoxicity control for West Nile virus antiviral project, SAR follow-up (AID 2402); format: functional; conditions: Chlorocebus sabaeus
Vero [3] = experiment: host cell viability loss, Vero E6 – synthesized analogs, cytotoxicity control for West Nile virus antiviral project, SAR follow-up (AID 2244); format: functional; conditions: Chlorocebus sabaeus
Vero [4] = experiment: antiviral protection of cells from WNV – synthesized analogs, SAR follow-up (AID 2238); format: functional, cell-based; conditions: Chlorocebus sabaeus
[5] = target: T1, Eukaryotic translation initiation factor 4H (Homo sapiens, UniProt Q15056); experiment: eIF4H binding inhibition – biochemical, uHTS, fluorescence polarization, translation initiation inhibitor project, primary screen (AID 2012)
[6] = target: T2, Polyadenylate-binding protein 1 (Homo sapiens, UniProt P11940); experiment: blockers of PABP interaction with poly(A) – biochemical, fluorescence polarization, […] (AID 2014)
[7] = target: T1, Eukaryotic translation initiation factor 4H; experiment: inhibitors of translation initiation factor eIF4H – SAR follow-up (AID 435011); format: functional
[8] = target: T2, Polyadenylate-binding protein 1; experiment: PABP inhibition in translation initiation, SAR follow-up (AID 435018); format: functional
[9] = target: T3, Short transient receptor potential channel 4 (Mus musculus, UniProt Q9QUQ5); experiment: potentiation of DAMGO-evoked TRPC4 calcium signal – cell-based, HEK293 TRPC4/mu-opioid, Fluo-4 calcium, EC20 DAMGO, dose response (AID 434941); format: functional
T3 sequence (Q9QUQ5 whole entry): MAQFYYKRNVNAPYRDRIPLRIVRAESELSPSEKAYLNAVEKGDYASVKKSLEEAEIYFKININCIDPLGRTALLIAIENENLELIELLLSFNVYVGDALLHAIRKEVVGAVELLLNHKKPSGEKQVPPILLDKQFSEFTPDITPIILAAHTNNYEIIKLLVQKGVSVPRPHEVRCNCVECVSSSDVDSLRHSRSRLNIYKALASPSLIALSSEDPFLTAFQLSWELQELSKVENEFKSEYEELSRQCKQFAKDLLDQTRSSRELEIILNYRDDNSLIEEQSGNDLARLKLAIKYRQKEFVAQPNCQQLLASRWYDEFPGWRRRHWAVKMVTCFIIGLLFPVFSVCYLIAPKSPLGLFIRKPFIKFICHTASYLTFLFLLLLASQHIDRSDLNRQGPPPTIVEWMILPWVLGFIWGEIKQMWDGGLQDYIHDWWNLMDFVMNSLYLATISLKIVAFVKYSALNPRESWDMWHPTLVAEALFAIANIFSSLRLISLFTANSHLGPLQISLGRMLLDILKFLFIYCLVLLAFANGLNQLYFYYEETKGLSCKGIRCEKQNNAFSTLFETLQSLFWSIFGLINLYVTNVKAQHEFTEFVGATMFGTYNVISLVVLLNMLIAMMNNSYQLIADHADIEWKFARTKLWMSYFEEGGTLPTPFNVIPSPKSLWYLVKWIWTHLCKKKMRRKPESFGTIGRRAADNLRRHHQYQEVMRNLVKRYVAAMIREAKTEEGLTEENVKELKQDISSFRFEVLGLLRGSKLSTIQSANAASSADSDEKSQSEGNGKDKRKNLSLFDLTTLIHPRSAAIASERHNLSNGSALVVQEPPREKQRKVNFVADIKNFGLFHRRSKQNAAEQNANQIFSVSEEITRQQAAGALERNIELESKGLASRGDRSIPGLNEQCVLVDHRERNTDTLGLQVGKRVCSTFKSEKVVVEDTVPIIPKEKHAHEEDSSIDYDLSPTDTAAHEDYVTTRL

[10] = target: G-protein coupled receptor 35 (Homo sapiens, UniProt Q9HC97); experiment: inhibition of zaprinast-stimulated GPR35 beta-arrestin translocation – imaging, U2OS, beta-arrestin-GFP, zaprinast agonist, primary screen (AID 2058); format: functional;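 note: antagonist potency meaning inhibition of agonist-induced arrestin redistribution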
[11] = target: T4, Heat shock factor protein 1 (Mus musculus, UniProt P38532); experiment: decrease of HSF1-responsive luciferase luminescence – cell-based, NIH3T3, dose retest, confirmation (AID 2382); format: functional;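 note: NIH3T3 fibroblasts with HSF1-driven luciferase reporter stressed by proteasome inhibitor MG132; luminescence from HSF1-driven luciferase expression after 8 hours of MG132 stress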
T4 sequence (P38532 whole entry): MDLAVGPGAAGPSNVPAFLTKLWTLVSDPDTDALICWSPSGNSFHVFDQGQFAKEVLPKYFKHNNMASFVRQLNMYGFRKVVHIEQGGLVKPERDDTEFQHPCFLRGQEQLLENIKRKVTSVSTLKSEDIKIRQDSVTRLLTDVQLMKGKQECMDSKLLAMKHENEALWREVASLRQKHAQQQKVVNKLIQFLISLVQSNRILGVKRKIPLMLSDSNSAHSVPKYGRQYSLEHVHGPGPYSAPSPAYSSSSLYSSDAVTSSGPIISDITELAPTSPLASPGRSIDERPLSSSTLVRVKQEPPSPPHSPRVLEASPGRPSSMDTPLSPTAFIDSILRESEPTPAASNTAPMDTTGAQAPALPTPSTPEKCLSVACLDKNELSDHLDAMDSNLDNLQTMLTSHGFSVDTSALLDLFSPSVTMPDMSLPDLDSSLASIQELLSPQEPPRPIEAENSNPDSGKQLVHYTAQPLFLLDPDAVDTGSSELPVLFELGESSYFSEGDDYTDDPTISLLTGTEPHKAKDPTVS

Saccharomyces cerevisiae = experiment: S. cerevisiae Caspase-1/ASC signal blockers IC50, NALP1 inhibitor project selectivity test (AID 488863); format: functional, organism-based
[12] = target: NACHT, LRR and PYD domains-containing protein 1 (Homo sapiens, UniProt Q9C000); experiment: NALP1 inhibitors in yeast, dose response, luminescent (AID 488860); format: functional
Beta-galactosidase = Beta-galactosidase (Escherichia coli, UniProt Q8VNN2); experiment: detection-enzyme interference by beta-gal modulators – biochemical, E. coli enzyme, set 3, artefact control for CCR6 antagonist project, dose response (AID 504712); format: functional
CHO = CHO cell viability loss, potency – luminescence, cytotoxicity control for TLR9-MyD88 binding inhibitor project, dose response (AID 588339); format: functional, cell-based, hamster; conditions: Cricetulus griseus;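 note: CHO cells stably coexpressing TLR9 and MyD88 fusions from primary screen; compound exposure lasted 48 hours before viability readout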
[13] = target: T5, Replicative DNA helicase DnaB (Mycobacterium tuberculosis, UniProt P9WMR3); experiment: DnaB intein splicing inhibitors, dose response, biochemical, cell-free fluorescence (AID 449749); format: functional
T5 sequence (P9WMR3 whole entry): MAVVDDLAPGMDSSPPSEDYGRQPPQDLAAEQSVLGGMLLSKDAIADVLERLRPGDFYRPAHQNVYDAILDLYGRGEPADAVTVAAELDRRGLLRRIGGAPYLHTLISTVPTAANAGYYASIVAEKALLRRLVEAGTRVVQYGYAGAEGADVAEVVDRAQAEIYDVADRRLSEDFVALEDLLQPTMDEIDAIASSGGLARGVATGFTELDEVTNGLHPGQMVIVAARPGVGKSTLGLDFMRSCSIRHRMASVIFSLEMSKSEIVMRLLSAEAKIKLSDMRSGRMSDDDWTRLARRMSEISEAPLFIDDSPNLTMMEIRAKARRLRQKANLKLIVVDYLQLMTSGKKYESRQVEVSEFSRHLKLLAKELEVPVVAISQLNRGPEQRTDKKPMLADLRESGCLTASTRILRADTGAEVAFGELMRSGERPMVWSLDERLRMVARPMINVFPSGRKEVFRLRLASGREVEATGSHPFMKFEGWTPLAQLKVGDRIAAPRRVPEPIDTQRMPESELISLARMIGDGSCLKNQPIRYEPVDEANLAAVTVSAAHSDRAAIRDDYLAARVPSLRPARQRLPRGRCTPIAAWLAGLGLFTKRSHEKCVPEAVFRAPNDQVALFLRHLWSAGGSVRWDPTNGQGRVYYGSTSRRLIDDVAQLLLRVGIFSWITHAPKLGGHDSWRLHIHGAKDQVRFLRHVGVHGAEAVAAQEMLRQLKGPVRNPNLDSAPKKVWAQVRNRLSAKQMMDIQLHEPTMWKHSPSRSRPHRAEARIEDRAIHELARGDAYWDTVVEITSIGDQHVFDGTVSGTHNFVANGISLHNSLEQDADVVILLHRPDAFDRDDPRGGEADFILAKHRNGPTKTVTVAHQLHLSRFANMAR

Protein RecA = target: T6, Protein RecA (Mycobacterium tuberculosis, UniProt P9WHJ3); experiment: Fluorescence Cell-Free Homogeneous Dose Retest to Identify Inhibitors of RecA-Intein Splicing Activity. [Related pubchem assays (depositor defined):AID2097, AID2223, AID489010, AID492950]; format: functional
T6 sequence (P9WHJ3 whole entry): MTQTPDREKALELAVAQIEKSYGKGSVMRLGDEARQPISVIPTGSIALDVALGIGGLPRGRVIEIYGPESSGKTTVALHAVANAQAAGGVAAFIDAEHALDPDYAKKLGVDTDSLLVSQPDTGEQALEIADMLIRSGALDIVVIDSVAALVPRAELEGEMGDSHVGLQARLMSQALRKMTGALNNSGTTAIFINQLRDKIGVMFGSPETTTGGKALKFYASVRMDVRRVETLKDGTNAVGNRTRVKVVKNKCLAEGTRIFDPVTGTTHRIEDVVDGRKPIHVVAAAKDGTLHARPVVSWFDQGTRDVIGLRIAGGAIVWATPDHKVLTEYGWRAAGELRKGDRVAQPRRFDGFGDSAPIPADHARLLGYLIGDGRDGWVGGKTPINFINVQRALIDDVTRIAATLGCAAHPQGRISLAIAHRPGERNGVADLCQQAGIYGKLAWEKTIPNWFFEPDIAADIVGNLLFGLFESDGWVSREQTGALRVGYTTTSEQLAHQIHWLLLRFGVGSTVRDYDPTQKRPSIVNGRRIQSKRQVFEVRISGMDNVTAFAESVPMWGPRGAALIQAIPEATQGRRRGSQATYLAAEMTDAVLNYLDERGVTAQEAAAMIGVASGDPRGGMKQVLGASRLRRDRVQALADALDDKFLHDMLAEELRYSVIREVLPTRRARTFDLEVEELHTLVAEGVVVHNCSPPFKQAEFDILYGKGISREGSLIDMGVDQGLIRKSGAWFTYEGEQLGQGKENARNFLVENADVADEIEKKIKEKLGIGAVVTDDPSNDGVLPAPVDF

Beta Lactamase = Beta Lactamase (Pseudomonas aeruginosa, UniProt Q932Y6); experiment: BLA reporter interference, concentration series – BLA reporter cells, FRET fluorescence, artefact control for TLR9-MyD88 binding inhibitor project, dose response (AID 588341); format: cell-based;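 note: cell based assay in CHO-K1 cells stably expressing beta-lactamase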
HEK293 [14] = experiment: cells; conditions: Homo sapiens
HEK293 [15] = experiment: cells; conditions: Homo sapiens; remark: listed apart in the source
[16] = BJeHLT cell viability loss – BJeHLT cells, dry powder, counter-screen for Ras selective lethality project, dose response (AID 493052); format: functional, cell-based; conditions: Homo sapiens
[17] = DRD BJ cell killing, Ras synthetic lethality – DRD BJ fibroblasts, HRASV12, dry powder, dose response (AID 493049); format: functional, cell-based
[18] = HRAS-V12 fibroblast viability reduction – cell-based, Alamar Blue, dry powder, Ras selective lethality project, primary screen (AID 493045); format: functional; conditions: BJeLR
[19] = BJeH cell viability loss – BJeH cells, dry powder, counter-screen for Ras selective lethality project, dose response (AID 493054); format: functional, cell-based

T2 sequence (P11940 whole entry): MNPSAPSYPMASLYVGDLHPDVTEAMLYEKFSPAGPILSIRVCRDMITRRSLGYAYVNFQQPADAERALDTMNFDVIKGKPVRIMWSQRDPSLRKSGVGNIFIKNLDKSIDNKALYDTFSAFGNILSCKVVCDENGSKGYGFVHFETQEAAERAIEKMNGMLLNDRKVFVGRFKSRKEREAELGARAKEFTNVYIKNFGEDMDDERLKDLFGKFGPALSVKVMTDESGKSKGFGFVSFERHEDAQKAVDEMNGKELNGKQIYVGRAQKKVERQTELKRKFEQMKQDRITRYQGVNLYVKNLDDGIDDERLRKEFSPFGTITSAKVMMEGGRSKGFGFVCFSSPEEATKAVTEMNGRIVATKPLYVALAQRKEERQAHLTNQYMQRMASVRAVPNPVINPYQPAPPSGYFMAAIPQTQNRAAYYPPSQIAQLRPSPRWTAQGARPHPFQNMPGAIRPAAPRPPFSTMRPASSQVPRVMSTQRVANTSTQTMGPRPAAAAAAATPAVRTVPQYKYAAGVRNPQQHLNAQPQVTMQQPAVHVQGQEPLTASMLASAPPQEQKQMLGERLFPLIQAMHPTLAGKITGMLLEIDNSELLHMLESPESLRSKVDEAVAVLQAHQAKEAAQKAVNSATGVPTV
Sequence of Beta-galactosidase (Q8VNN2 whole entry, the tested form may be a part): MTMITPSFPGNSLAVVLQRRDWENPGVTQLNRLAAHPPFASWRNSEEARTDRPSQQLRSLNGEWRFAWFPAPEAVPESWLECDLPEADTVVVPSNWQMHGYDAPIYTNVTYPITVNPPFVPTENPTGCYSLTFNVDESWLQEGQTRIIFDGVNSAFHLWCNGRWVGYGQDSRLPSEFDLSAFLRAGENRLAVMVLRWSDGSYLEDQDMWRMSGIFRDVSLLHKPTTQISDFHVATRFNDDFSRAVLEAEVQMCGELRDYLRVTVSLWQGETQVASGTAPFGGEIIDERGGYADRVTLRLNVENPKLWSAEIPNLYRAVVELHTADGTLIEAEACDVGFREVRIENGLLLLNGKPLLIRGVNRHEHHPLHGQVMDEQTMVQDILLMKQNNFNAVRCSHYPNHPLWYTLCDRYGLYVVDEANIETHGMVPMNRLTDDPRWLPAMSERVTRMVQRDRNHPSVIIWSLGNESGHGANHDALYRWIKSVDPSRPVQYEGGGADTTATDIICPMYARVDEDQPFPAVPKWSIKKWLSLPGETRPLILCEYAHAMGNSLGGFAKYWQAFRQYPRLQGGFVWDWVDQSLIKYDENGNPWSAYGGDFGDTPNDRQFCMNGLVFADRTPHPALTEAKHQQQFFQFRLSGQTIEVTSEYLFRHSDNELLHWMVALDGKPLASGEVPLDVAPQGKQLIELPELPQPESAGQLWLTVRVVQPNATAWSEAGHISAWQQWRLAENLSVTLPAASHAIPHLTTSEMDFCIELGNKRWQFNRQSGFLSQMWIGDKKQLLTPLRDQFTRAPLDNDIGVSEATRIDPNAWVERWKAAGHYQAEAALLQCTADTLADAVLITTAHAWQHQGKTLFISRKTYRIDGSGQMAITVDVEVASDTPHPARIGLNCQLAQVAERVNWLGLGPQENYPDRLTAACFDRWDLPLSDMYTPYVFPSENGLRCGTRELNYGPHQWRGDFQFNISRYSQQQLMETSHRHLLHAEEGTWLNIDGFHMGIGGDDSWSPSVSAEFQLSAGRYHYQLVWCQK
Sequence of NACHT, LRR and PYD domains-containing protein 1 (Q9C000 1-1212 limits assumed): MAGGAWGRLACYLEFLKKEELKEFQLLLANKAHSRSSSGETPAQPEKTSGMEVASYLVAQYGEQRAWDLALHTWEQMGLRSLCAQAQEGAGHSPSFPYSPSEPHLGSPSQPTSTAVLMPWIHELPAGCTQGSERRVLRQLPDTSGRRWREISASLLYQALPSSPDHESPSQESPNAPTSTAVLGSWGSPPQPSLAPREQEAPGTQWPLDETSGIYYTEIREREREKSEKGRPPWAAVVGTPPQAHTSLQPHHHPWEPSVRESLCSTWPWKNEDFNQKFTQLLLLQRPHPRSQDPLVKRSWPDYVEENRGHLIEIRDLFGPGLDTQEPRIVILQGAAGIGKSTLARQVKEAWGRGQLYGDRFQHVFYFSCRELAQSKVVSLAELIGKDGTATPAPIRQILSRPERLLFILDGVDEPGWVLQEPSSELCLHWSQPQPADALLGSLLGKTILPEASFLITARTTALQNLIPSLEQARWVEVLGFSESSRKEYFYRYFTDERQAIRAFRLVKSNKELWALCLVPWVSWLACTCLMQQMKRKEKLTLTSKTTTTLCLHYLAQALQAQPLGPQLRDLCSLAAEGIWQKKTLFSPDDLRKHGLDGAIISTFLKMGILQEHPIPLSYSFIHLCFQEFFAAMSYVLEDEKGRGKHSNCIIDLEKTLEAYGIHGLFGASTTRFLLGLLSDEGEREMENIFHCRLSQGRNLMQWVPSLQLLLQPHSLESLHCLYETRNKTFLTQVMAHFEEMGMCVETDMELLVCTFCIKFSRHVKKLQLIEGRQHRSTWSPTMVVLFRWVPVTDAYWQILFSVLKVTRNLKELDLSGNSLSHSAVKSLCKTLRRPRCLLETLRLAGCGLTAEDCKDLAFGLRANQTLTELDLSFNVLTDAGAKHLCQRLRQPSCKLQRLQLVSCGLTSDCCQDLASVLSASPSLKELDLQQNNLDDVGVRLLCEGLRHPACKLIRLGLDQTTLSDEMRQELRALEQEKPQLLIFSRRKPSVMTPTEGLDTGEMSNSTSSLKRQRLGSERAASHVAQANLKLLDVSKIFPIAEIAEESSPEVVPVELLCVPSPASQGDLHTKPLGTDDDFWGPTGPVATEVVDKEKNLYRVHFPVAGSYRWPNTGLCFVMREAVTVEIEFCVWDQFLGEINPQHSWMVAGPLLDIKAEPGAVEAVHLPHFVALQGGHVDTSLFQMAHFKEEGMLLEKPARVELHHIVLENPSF
Sequence of NACHT, LRR and PYD domains-containing protein 1 (Q9C000 1213-1473 limits assumed): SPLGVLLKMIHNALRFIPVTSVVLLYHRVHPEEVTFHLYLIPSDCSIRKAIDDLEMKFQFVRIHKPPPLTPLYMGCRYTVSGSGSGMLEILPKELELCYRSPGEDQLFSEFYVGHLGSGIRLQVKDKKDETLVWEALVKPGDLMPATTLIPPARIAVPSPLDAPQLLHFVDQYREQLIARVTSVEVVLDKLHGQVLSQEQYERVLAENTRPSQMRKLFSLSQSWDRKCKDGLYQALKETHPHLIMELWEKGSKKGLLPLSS
Sequence of Beta Lactamase (Q932Y6 whole entry): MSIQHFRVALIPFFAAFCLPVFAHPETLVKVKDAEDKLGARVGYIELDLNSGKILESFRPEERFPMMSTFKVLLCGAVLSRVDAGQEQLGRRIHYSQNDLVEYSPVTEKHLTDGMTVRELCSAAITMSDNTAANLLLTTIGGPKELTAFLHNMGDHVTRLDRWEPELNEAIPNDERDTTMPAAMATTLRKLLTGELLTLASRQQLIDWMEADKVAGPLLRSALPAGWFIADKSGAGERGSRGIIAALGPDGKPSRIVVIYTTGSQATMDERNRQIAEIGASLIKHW
Sequence of G-protein coupled receptor 35 (Q9HC97 whole entry): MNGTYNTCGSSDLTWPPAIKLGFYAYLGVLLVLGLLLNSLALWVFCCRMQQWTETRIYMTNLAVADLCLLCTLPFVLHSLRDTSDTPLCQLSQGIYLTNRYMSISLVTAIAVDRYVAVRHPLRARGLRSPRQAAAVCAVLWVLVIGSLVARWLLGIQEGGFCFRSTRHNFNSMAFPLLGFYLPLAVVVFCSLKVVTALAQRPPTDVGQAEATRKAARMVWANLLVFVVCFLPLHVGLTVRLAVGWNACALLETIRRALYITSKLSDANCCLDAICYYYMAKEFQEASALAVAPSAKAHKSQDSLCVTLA

## O=C(CSc1nc2ccccc2c(=O)n1-c1ccccc1F)Nc1ccc2c(c1)CCC2
Vero [1]
  CC50: > 66.6 µM (active)
Vero [2]
  CC50: > 100 µM (active)
Vero [3]
  CC50: > 40 µM (active)
Vero [4]
  IC50: 16.4 µM (active)

## O=C(Nc1cccc2ncccc12)c1ccccc1Cl
[5]
  IC50: > 100 µM (inactive)
[6]
  IC50: 4 µM (active)
[7]
  IC50: 9.25 µM (active)
[8]
  IC50: 1.68 µM (active)

## Cc1ccc(C(C)C)cc1OCCCCN1CCCC1
[9]
  EC50: 0.53 µM (active)

## CC(NC(=O)/C(C#N)=C/c1ccc([N+](=O)[O-])o1)c1ccccc1 (centres undefined)
[10]
  IC50: 3.85 µM (active)
[11]
  EC50: 6.1 µM (active)
Saccharomyces cerevisiae
  IC50: 9.51 µM (active)
[12]
  IC50: 14.3 µM (active)
Beta-galactosidase
  IC50: > 66.6 µM (inactive)
CHO
  IC50: 4.03 µM (active)
[13]
  AC50: > 120 µM (inactive)
Protein RecA
  EC50: 35 µM (active)
Beta Lactamase
  IC50: 8.23 µM (active)
HEK293 [14]
  EC50: > 59.6 µM (inactive)
HEK293 [15]
  EC50: > 59.6 µM (inactive)

## COc1ccc(C(C(=O)NC2CCCCC2)N(C(=O)CCl)c2ccc(OC)c(Cl)c2)cc1 (centres undefined)
[16]
  AC50: 0.366 µM (active)
[17]
  AC50: 0.126 µM (active)
[18]
  AC50: 0.122 µM (active)
[19]
  AC50: 0.536 µM (active)

From ChEMBL document CHEMBL1201862, “PubChem BioAssay data set” (2004)
